Results from US10213450B2, “Combination of biologically active substances for treatment of hyperglycaemic disorders” (BioActive Food GmbH, priority 2014, dated 2019).

Legend:
[1] = target: T1, lactase phlorizin hydrolase (LPH) (Homo sapiens, UniProt P09848); assay: In vitro inhibition of LPH, phlorizin dihydrate as substrate, released glucose measured; assay type: biochemical
T1 construct: tissue of the human small intestine (0.6 mg/ml) expressing the LPH was used; from tissue; host or cells: human small intestine tissue
T1 sequence (P09848 869-1927): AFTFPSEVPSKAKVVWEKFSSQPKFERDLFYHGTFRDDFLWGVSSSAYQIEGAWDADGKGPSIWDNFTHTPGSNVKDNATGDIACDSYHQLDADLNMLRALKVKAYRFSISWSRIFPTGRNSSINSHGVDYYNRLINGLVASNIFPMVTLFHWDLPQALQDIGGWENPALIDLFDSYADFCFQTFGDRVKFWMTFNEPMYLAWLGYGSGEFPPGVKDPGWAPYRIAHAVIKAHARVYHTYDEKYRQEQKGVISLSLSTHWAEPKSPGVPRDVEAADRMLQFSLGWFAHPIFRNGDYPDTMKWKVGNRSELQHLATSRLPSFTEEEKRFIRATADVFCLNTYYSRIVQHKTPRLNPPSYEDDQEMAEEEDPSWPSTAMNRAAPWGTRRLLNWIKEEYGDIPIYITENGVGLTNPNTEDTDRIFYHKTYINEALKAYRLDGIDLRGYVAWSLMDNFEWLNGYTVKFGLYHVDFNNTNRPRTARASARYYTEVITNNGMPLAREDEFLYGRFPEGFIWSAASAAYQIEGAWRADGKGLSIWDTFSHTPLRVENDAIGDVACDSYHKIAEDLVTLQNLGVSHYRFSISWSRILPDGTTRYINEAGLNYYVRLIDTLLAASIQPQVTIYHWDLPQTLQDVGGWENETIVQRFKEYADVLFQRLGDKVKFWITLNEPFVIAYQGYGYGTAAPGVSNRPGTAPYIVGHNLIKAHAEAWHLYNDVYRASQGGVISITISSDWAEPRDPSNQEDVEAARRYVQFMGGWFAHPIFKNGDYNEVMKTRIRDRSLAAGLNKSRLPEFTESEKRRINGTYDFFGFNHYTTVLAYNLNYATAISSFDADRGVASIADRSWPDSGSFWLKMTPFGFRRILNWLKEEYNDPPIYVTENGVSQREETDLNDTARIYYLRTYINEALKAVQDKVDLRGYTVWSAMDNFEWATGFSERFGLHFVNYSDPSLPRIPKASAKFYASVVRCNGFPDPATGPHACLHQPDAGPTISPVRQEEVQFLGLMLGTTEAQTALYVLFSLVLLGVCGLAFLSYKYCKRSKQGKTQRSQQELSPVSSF
Description: Various quercetin and kaempferol derivates were tested in vitro as inhibitors of lactase phlorizin hydrolase (LPH). The testing was carried out according to Amiri et al. (2012, J Inherit Metab Dis, 35(6): 949-54). Here, tissue of the human small intestine (0.6 mg/ml) expressing the LPH was used. Phlorizin dihydrate served as the substrate. The released glucose was measured using a standard assay (Chu & Cheung, 1978, Clin Biochem, 11(4): 187-9).

human SGLT1 = target: T2, human SGLT1 (Homo sapiens, UniProt P13866); assay: Ex vivo model: incubation with LPH-expressing human small intestine brush border membranes, then SGLT1 activity of supernatants by two-electrode voltage-clamp in Xenopus oocytes; assay type: cell-based; settings: LPH inhibitor 10 μg/ml alone
T2 construct: expressed in transfected cells; host or cells: Xenopus oocytes
T2 sequence (P13866 1-664): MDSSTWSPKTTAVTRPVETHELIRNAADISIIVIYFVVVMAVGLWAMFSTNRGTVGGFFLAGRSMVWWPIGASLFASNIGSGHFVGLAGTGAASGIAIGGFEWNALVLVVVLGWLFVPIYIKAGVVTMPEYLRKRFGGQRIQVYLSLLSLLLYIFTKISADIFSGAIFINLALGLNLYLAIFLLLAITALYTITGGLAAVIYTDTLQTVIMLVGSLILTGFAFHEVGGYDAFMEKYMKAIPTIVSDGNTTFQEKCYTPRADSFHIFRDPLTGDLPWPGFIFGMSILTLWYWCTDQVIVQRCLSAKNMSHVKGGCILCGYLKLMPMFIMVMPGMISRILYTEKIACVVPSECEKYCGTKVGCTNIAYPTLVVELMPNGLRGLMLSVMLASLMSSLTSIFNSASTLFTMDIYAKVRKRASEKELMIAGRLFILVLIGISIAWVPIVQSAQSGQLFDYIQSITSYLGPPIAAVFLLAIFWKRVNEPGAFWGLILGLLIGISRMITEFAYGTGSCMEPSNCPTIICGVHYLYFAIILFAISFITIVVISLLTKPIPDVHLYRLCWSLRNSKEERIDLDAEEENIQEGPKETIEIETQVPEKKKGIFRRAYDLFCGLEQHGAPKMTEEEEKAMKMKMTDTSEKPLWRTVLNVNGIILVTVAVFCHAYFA
Description: The effect of a combination of phlorizin and a LPH inhibitor on the uptake of glucose by the SGLT 1 transporter was tested with an ex vivo model that simulates the situation in the human intestine. The ex vivo test model uses tissue from the human small intestine which expresses the lactase phlorizin hydrolase (LPH) and is thus able to cleave phlorizin and other glycosides. Subsequently, the reaction batches that had been pre-processed in this way were tested in an in vitro assay for their inhibitory effect on the SGLT1 transporter.
In summary, so-called “brush border membranes” were prepared from the small intestine and incubated in an appropriate buffer with phlorizin and/or the respective LPH inhibitor for 90 minutes.
Here, Xenopus oocytes were used which express the human SGLT1. The transport of glucose by SGLT1 can be measured because the combined transport of glucose and sodium by SGLT1 causes a current through the oocyte membrane. This current is determined electrophysiologically by a “two-electrode voltage-clamp” method. In this model, a reduction in the activity of the SGLT1 also results in a reduction of current across the cell membrane.

| SMILES | inhibition at 100 µg/mL ([1]; 100 μg/ml inhibitor (stated in cell)) [%] | Glucose uptake, inhibition (human SGLT1; Batch A) [%] | Glucose uptake, inhibition (human SGLT1; Batch B) [%] | inhibition of the LPH ([1]; concentration of 50 mg/ml (as printed in text)) |
| --- | --- | --- | --- | --- |
| O=c1c(OC2O[C@H](CO)[C@@H](O)[C@H](O)[C@H]2O)c(-c2ccc(O)c(O)c2)oc2cc(O)cc(O)c12 (stereo partly shown) [compound 2] | 13.7 |  |  |  |
| O=c1c(O)c(-c2ccc(O)c(O)c2)oc2cc(OC3O[C@H](CO)[C@@H](O)[C@H](O)[C@H]3O)cc(O)c12 (stereo partly shown) [No. 3, 3,3′,4′,5,7-pentahydroxy flavone-7-glucoside] |  | 2 | 2.5 | about 70% |
